This is an account of results in ChEMBL document CHEMBL3244221, “Attempted inhibition of histidine decarboxylase with beta-alkyl analogues of histidine” (J Med Chem, 1977).

Calls of active or inactive are those of the source. The rule behind the calls is not given here.

As usually defined, the inhibition is the drop in the measured response relative to a control, in per cent.

Test [1] concerns the target T1, Histidine decarboxylase (Rattus norvegicus) (UniProt P16453).
T1 sequence (whole entry): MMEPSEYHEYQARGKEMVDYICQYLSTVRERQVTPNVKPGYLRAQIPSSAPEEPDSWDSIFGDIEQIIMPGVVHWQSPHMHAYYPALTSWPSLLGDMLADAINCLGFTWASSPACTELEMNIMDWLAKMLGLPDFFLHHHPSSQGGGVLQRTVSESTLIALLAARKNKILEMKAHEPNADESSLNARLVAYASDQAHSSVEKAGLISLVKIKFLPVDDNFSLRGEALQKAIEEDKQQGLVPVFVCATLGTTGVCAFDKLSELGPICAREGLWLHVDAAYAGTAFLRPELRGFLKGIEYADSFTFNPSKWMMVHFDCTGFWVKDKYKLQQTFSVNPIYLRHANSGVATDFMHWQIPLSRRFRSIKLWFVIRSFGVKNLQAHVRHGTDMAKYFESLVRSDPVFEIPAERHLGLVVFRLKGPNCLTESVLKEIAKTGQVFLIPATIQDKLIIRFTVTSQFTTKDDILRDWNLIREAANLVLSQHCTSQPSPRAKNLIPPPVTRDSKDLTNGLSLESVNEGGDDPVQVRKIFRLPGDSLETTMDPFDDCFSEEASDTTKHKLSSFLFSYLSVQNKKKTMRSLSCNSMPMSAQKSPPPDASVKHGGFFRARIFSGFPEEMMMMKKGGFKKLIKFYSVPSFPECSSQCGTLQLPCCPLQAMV
Description: Inhibition of histidine decarboxylase in Sprague-Dawley rat stomach using L-histidine-carboxyl-[14C] as substrate at 1 X 10^-4 M after 30 mins by scintillation counting analysis.

Test [2] deals with T1, Histidine decarboxylase (Rattus norvegicus). Nature of the test: Inhibition of histidine decarboxylase in Sprague-Dawley rat stomach using L-histidine-carboxyl-[14C] as substrate at 4 X 10^-6 M after 30 mins by scintillation counting analysis relative to control.

As to `CC(c1c[nH]cn1)C(N)C(=O)O` (configuration not stated), the inhibition result in test [1] is “inactive”.
For the compound `CCC(c1c[nH]cn1)C(N)C(=O)O` (mixture of isomers), the inhibition result in test [1] was “inactive”.
Turning to `CCC(c1c[nH]cn1)C(N)C(=O)OC` (mixture of isomers), the inhibition in test [2] came out at 50%. Further, the inhibition result in test [1] is “inactive”.
For the compound `CCCCCCC(c1c[nH]cn1)C(N)C(=O)O` (mixture of isomers), the inhibition entry in test [1] was “inactive”.
`COC(=O)C(N)C(C)c1c[nH]cn1` (mixture of isomers) had an inhibition in test [2] of 50%. In test [1], the inhibition result is “inactive”.
